This note sets out measurements from patent publication US8574563B2 (Bristol-Myers Squibb Company, priority 2006, dated 2013).

Molecules are shown by their SMILES.

In one assay the test system is HCV 1b-377-neo replicon cells. Briefly: HCV replicon assay, HCV 1b-377-neo replicon cells (1b FRET). The settings on record: HCV 1b-377-neo replicon cells; HCV 1b genotype; read-out: EC50 range against HCV 1b (Table 2, Range). In kind it is cell-based, Hepatitis C virus genotype 1b. Put shortly:
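Compounds were tested in genotype 1b subgenomic replicon cells carrying a neomycin marker, alongside a matched replicon line with an NS5A Y2065H substitution that confers resistance to a reference NS5A inhibitor.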
As to `COC(=O)N[C@H](C(=O)N1CCC[C@H]1c1ncc(-c2ccc(-c3ccc(-c4cnc([C@@H]5CCCN5C(=O)N5CCN(C)CC5)[nH]4)cc3)cc2)[nH]1)C(C)C` [Example M82, methyl ((1S)-2-methyl-1-(((2S)-2-(5-(4′-(2-((2S)-1-((4-methyl-1-piperazinyl)carbonyl)-2-pyrrolidinyl)-1H-imidazol-5-yl)-4-biphenylyl)-1H-imidazol-2-yl)-1-pyrrolidinyl)carbonyl)propyl) carbamate], the concentration for a half-maximal effect (EC50) was in the range of 1 to 99 nM.

Still in this assay, the particulars now being: Hepatitis C virus, HCV 1b-377-neo replicon cells; HCV 1b genotype; read-out: EC50 range against HCV 1b (Table 2, Range).
Regarding `COC(=O)NCC(=O)N1[C@@H]2C[C@@H]2C[C@H]1c1nc(-c2ccc(-c3ccc(-c4c[nH]c([C@@H]5C[C@H]6C[C@H]6N5C(=O)CNC(=O)OC)n4)cc3)cc2)c[nH]1` [Example M134, methyl (2-((1R,3S,5R)-3-(4-(4′-(2-((1R,3S,5R)-2-(((methoxy-carbonyl)amino)acetyl)-2-azabicyclo[3.1.0]hex-3-yl)-1H-imidazol-4-yl)-4-biphenylyl)-1H-imidazol-2-yl)-2-azabicyclo[3.1.0]hex-2-yl)-2-oxoethyl)carbamate], the EC50 was in the range of 1 to 99 nM.
As to `COC(=O)N[C@@H](C(=O)N1CCC[C@H]1c1ncc(-c2ccc(-c3ccc(-c4cnc([C@@H]5CCCN5C(=O)c5ncc[nH]5)[nH]4)cc3)cc2)[nH]1)c1ccccc1` [Example 63, methyl ((1R)-2-((2S)-2-(5-(4′-(2-((2S)-1-(1H-imidazol-2-ylcarbonyl)-2-pyrrolidinyl)-1H-imidazol-5-yl)-4-biphenylyl)-1H-imidazol-2-yl)-1-pyrrolidinyl)-2-oxo-1-phenylethyl)carbamate], the 50% effective concentration (EC50) was 0.001 to 0.999 nM.
The same measure, in the same setting: as for `CCN(CC)[C@@H](C(=O)N1CCC[C@H]1c1ncc(-c2ccc(-c3ccc(-c4cnc([C@@H]5CCCN5C(=O)[C@@H](c5ccccc5)N(C)C)[nH]4)cc3)cc2)[nH]1)c1ccccc1` [Example M52, (1R)-2-((2S)-2-(5-(4′-(2-((2S)-1-((2R)-2-(diethylamino)-2-phenylacetyl)-2-pyrrolidinyl)-1H-imidazol-5-yl)-4-biphenylyl)-1H-imidazol-2-yl)-1-pyrrolidinyl)-N,N-dimethyl-2-oxo-1-phenylethanamine], the figure is 1 to 99 nM; as for `COC(=O)N[C@@H](C)C(=O)N1CCC[C@H]1c1ncc(-c2ccc(-c3ccc(-c4cnc([C@@H]5CCCN5C(=O)[C@H](Cc5cccnc5)NC(=O)OC)[nH]4)cc3)cc2)[nH]1` [cj-85, methyl ((1S)-2-((2S)-2-(5-(4′-(2-((2S)-1-(N-(methoxycarbonyl)-L-alanyl)-2-pyrrolidinyl)-1H-imidazol-5-yl)-4-biphenylyl)-1H-imidazol-2-yl)-1-pyrrolidinyl)-2-oxo-1-(3-pyridinylmethyl)ethyl)carbamate], 0.001 to 0.999 nM.
On to `CC(C)[C@H](NC(=O)N(C)C)C(=O)N1CCC[C@H]1c1ncc(-c2ccc(-c3ccc(-c4cnc([C@@H]5CCCN5C(=O)[C@@H](NC(=O)N(C)C)C(C)C)[nH]4)cc3)cc2)[nH]1` [OL-1, 3-((1S)-1-(((2S)-2-(4-(4′-(2-((2S)-1-((2S)-2-((dimethylcarbamoyl)amino)-3-methylbutanoyl)-2-pyrrolidinyl)-1H-imidazol-4-yl)-4-biphenylyl)-1H-imidazol-2-yl)-1-pyrrolidinyl)carbonyl)-2-methylpropyl)-1,1-dimethylurea], for which the 50% effective concentration (EC50) lay in the range of 0.001 to 0.999 nM.
Same read-out and setting: as for `COC(=O)N[C@H](CC(=O)N1CCC[C@H]1c1ncc(-c2ccc(-c3ccc(-c4cnc([C@@H]5CCCN5C(=O)C[C@H](Cc5cccs5)NC(=O)OC)[nH]4)cc3)cc2)[nH]1)Cc1cccs1` [cj-136, dimethyl (4,4′-biphenyldiylbis(1H-imidazole-5,2-diyl(2S)-2,1-pyrrolidinediyl((2R)-4-oxo-1-(2-thienyl)-4,2-butanediyl)))biscarbamate], the figure is 0.001 to 0.999 nM.
Still for that read-out and setting: as for `COC(=O)N[C@@H](C(=O)N1[C@@H]2C[C@@H]2C[C@H]1c1nc(-c2ccc(-c3ccc(-c4c[nH]c([C@@H]5C[C@H]6C[C@H]6N5C(=O)[C@H](NC(=O)OC)C(C)C)n4)cc3)cc2)c[nH]1)C(C)C` [Example M136, methyl ((1R)-1-(((1R,3S,5R)-3-(4-(4′-(2-((1R,3S,5R)-2-((2R)-2-((methoxycarbonyl)amino)-3-methylbutanoyl)-2-azabicyclo[3.1.0]hex-3-yl)-1H-imidazol-4-yl)-4-biphenylyl)-1H-imidazol-2-yl)-2-azabicyclo[3.1.0]hex-2-yl)carbonyl)-2-methylpropyl)carbamate], the figure is 1 to 99 nM.
Consider `CCCN(CCC)[C@@H](C)C(=O)N1CCC[C@H]1c1ncc(-c2ccc(-c3ccc(-c4cnc([C@@H]5CCCN5C(=O)[C@@H](c5ccccc5)N(CC)CC)[nH]4)cc3)cc2)[nH]1` [Example M43, N-((1S)-2-((2S)-2-(5-(4′-(2-((2S)-1-((2R)-2-(diethylamino)-2-phenylacetyl)-2-pyrrolidinyl)-1H-imidazol-5-yl)-4-biphenylyl)-1H-imidazol-2-yl)-1-pyrrolidinyl)-1-methyl-2-oxoethyl)-N-propyl-1-propanamine], for which the EC50 lay in the range of 1 to 99 nM.
As for `CN(C)[C@H](Cc1ccccc1)C(=O)N1CCC[C@H]1c1ncc(-c2ccc(-c3ccc(-c4cnc([C@@H]5CCCN5C(=O)[C@@H](Cc5ccccc5)N(C)C)[nH]4)cc3)cc2)[nH]1` [cj-147, (2R,2′R)-1,1′-(4,4′-biphenyldiylbis(1H-imidazole-5,2-diyl(2S)-2,1-pyrrolidinediyl))bis(N,N-dimethyl-1-oxo-3-phenyl-2-propanamine)], the 50% effective concentration (EC50) lay in the range of 1 to 99 nM.
For the compound `COC(=O)N[C@H](C(=O)N1CCC[C@H]1c1nc(-c2ccc(-c3ccc(-c4c[nH]c([C@@H]5CCCN5C(=O)[C@@H](NC5CCOCC5)C(C)C)n4)cc3)cc2)c[nH]1)C(C)C` [Example F49, methyl ((1S)-2-methyl-1-(((2S)-2-(4-(4′-(2-((2S)-1-(N-(tetrahydro-2H-pyran-4-yl)-L-valyl)-2-pyrrolidinyl)-1H-imidazol-4-yl)-4-biphenylyl)-1H-imidazol-2-yl)-1-pyrrolidinyl)carbonyl)propyl)carbamate], the half-maximal effective concentration (EC50) fell in the range of 1 to 99 nM.
The same measure, in the same setting: as for `COC(=O)N[C@H](C(=O)N1[C@@H](C)CC[C@H]1c1ncc(-c2ccc(-c3ccc(-c4cnc([C@@H]5CC[C@H](C)N5C(=O)[C@@H](NC(=O)OC)C(C)C)[nH]4)cc3)cc2)[nH]1)C(C)C` [Example M151, methyl ((1S)-1-(((2S,5S)-2-(4-(4′-(2-((2S,5S)-1-((2S)-2-((methoxycarbonyl)amino)-3-methylbutanoyl)-5-methyl-2-pyrrolidinyl)-1H-imidazol-4-yl)-4-biphenylyl)-1H-imidazol-2-yl)-5-methyl-1-pyrrolidinyl)carbonyl)-2-methylpropyl)carbamate], the figure is 0.001 to 0.999 nM; as for `COC(=O)N[C@@H]1CCCC[C@H]1C(=O)N1CCC[C@H]1c1ncc(-c2ccc(-c3ccc(-c4cnc([C@@H]5CCCN5C(=O)[C@@H]5CCCC[C@H]5NC(=O)OC)[nH]4)cc3)cc2)[nH]1` [cj-139, dimethyl (4,4′-biphenyldiylbis(1H-imidazole-5,2-diyl(2S)-2,1-pyrrolidinediylcarbonyl(1R,2R)-2,1-cyclohexanediyl))biscarbamate], 1 to 99 nM.
Turning to `CC(=O)N[C@@H](C(=O)N1CCC[C@H]1c1ncc(-c2ccc(-c3ccc(-c4cnc([C@@H]5CCCN5C(=O)[C@H]5CCCO5)[nH]4)cc3)cc2)[nH]1)c1ccccc1` [Example 118, N-((1R)-2-oxo-1-phenyl-2-((2S)-2-(5-(4′-(2-((2S)-1-((2R)-tetrahydro-2-furanylcarbonyl)-2-pyrrolidinyl)-1H-imidazol-5-yl)-4-biphenylyl)-1H-imidazol-2-yl)-1-pyrrolidinyl)ethyl) acetamide], the EC50 lay within 0.001 to 0.999 nM.
As to `CN[C@@H](C)C(=O)N1CCC[C@H]1c1ncc(-c2ccc(-c3ccc(-c4cnc([C@@H]5CCCN5C(=O)[C@H](C)NC)[nH]4)cc3)cc2)[nH]1` [LS6, (2S,2′S)-1,1′-(4,4′-biphenyldiylbis(1H-imidazole-5,2-diyl(2S)-2,1-pyrrolidinediyl))bis(N-methyl-1-oxo-2-propanamine)], the EC50 lay within 100 to 999 nM.
Regarding `COC(=O)N[C@H](C(=O)N1CCC[C@H]1c1ncc(-c2ccc(-c3ccc(-c4cnc([C@@H]5CCCN5C(=O)[C@@H](NC(=O)OC)C5CC5)[nH]4)cc3)cc2)[nH]1)C(C)C` [Example M77, methyl ((1S)-1-(((2S)-2-(5-(4′-(2-((2S)-1-((2S)-2-cyclopropyl-2-((methoxycarbonyl)amino)acetyl)-2-pyrrolidinyl)-1H-imidazol-5-yl)-4-biphenylyl)-1H-imidazol-2-yl)-1-pyrrolidinyl)carbonyl)-2-methylpropyl)carbamate], the concentration giving a half-maximal response (EC50) was in the range of 1 to 99 nM.
`CCN(CC)[C@@H](C(=O)N1CCC[C@H]1c1ncc(-c2ccc(-c3ccc(-c4cnc([C@@H]5CCCN5C(=O)[C@H](C)NC(=O)OC)[nH]4)cc3)cc2)[nH]1)c1ccccc1` [Example M49, methyl ((1S)-2-((2S)-2-(5-(4′-(2-((2S)-1-((2R)-2-(diethylamino)-2-phenylacetyl)-2-pyrrolidinyl)-1H-imidazol-5-yl)-4-biphenylyl)-1H-imidazol-2-yl)-1-pyrrolidinyl)-1-methyl-2-oxoethyl)carbamate]: the concentration for a half-maximal effect (EC50) fell in the range of 1 to 99 nM.
Turning to `Cc1cc(-c2cnc([C@@H]3CCCN3C(=O)[C@@H](c3ccccc3)N(C)C)[nH]2)ccc1-c1ccc(-c2cnc([C@@H]3CCCN3C(=O)[C@@H](c3ccccc3)N(C)C)[nH]2)cc1C` [Example 121], the EC50 was in the range of 0.001 to 0.999 nM.
As to `CN(C)[C@@H](C(=O)N1CCC[C@H]1c1ncc(-c2cnc(-c3ncc(-c4cnc([C@@H]5CCCN5C(=O)[C@@H](c5ccccc5)N(C)C)[nH]4)cn3)nc2)[nH]1)c1ccccc1` [Example 153c-3, (1R,1′R)-2,2′-(2,2′-bipyrimidine-5,5′-diylbis(1H-imidazole-5,2-diyl(2S)-2,1-pyrrolidinediyl))bis(N,N-dimethyl-2-oxo-1-phenylethanamine)], the EC50 was in the range of 1000 to 10000 nM.

The EC50 is the concentration giving half of the maximal effect.
